Reference: patent US9938264B2, “Proteolysis targeting chimera compounds and methods of preparing and using same” (YALE UNIVERSITY, priority 2015, dated 2018)

How the values were obtained:
c-ABL = target: T1, c-ABL (Homo sapiens, UniProt P00519); test: c-ABL degradation in K562 cells by immunoblot; format: cell-based; conditions: for concentration from which degradation of c-ABL is observed: 24 hrs, immunoblot; for decrease (degradation) of c-ABL: at 1 μM PROTAC
T1 construct: endogenous in cells; host or cells: K562 (ATCC)
T1 sequence (P00519 whole entry): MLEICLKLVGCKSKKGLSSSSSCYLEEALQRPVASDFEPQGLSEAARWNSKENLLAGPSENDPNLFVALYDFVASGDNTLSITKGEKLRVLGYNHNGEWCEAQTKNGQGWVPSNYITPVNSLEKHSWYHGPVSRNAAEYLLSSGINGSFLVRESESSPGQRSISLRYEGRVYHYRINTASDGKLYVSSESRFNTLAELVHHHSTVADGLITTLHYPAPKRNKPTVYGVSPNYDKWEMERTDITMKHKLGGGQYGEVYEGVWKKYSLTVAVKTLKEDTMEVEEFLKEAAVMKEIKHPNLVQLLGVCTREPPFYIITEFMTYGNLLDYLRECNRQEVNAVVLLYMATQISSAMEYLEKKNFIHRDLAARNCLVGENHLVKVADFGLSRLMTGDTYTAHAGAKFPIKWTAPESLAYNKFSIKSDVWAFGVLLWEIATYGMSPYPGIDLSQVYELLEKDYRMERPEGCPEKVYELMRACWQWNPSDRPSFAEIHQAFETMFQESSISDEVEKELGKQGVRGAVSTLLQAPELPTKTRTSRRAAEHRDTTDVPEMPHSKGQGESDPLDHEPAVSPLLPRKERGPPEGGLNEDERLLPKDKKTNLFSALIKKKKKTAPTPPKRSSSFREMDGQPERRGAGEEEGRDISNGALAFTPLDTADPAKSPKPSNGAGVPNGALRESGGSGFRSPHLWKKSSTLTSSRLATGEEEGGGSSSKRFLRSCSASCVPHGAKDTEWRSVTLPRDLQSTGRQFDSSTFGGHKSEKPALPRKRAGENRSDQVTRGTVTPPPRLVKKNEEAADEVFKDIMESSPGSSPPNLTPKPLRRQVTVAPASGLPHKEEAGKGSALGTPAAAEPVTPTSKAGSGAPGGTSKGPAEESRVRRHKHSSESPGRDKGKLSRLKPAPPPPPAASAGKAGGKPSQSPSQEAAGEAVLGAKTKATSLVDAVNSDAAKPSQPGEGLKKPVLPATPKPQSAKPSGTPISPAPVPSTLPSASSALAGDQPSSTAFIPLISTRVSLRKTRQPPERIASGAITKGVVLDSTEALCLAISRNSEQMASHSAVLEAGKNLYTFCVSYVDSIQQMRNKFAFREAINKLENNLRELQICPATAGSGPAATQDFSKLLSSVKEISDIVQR
Experimental: (§1) K562 cells were obtained from ATCC and were grown at 37° C., 5% CO2 in Iscove's Modified Dulbecco's Media (IMDM) supplemented with 10% FBS, 100 U/mL penicillin and 100 μg/mL streptomycin. HEK293 and SK-BR-3 cells were obtained from ATCC and were grown at 37° C., 5% CO2 in Dulbecco's Modified Eagle's Media (DMEM) supplemented with 10% FBS, 100 U/mL penicillin and 100 μg/mL streptomycin.
(§2) K562 cells (1-1.5×10^6) were treated for 24 hours with the indicated compounds solubilized in DMSO. The cells were collected at 300 g for 3 min. […] The total protein concentrations were determined by Pierce BCA Protein Assay and […] of protein was loaded onto 10% Tris-Glycine gels. After standard gel electrophoresis, the separated proteins were transferred to nitrocellulose by wet transfer. The immunoblots were then processed by standard procedures and incubated with the respective antibodies. Band intensities were quantified by Bio-Rad's Image Lab software.

[1] = target: T2, phosphorylated c-ABL kinase domain (Homo sapiens, UniProt P00519); test: KinomeScan in vitro binding affinity (Kd), phosphorylated c-ABL kinase domain; conditions: Table 2, read-out: ABL (phosphorylated)
T2 construct: phosphorylated and non-phosphorylated c-ABL kinase domain; purchased DiscoverRx Corporation (KinomeScan platform)
T2 sequence (P00519 242-493 limits assumed): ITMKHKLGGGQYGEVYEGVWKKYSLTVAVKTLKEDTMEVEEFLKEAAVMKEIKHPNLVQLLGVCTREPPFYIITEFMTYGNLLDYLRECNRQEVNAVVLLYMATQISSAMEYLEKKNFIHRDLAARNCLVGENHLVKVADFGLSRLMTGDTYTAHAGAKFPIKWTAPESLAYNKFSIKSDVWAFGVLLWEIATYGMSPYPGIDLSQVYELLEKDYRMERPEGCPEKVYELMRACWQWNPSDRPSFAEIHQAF
Experimental: (§3) PROTAC in vitro binding affinities (Kd) to phosphorylated and non-phosphorylated c-ABL kinase domain were determined using the KinomeScan platform (DiscoverRx Corporation). The compounds were solubilized in DMSO and sent to DiscoverRx Corporation as a 10 μM stock solution.

[2] = target: T3, non-phosphorylated c-ABL kinase domain (Homo sapiens, UniProt P00519); test: KinomeScan in vitro binding affinity (Kd), non-phosphorylated c-ABL kinase domain; conditions: Table 2, read-out: ABL (non-phosphorylated)
T3 construct: phosphorylated and non-phosphorylated c-ABL kinase domain; purchased DiscoverRx Corporation (KinomeScan platform)
T3 sequence (P00519 242-493 limits assumed): T2 sequence (P00519 242-493 limits assumed)
Experimental: as §3

BCR-ABL = target: T4, BCR-ABL (Homo sapiens, UniProt P00519+P11274); test: BCR-ABL degradation in K562 cells by immunoblot; format: cell-based
T4 construct: endogenous in cells; host or cells: K562 (ATCC)
T4 sequence (P11274+P00519 fused, change not shown): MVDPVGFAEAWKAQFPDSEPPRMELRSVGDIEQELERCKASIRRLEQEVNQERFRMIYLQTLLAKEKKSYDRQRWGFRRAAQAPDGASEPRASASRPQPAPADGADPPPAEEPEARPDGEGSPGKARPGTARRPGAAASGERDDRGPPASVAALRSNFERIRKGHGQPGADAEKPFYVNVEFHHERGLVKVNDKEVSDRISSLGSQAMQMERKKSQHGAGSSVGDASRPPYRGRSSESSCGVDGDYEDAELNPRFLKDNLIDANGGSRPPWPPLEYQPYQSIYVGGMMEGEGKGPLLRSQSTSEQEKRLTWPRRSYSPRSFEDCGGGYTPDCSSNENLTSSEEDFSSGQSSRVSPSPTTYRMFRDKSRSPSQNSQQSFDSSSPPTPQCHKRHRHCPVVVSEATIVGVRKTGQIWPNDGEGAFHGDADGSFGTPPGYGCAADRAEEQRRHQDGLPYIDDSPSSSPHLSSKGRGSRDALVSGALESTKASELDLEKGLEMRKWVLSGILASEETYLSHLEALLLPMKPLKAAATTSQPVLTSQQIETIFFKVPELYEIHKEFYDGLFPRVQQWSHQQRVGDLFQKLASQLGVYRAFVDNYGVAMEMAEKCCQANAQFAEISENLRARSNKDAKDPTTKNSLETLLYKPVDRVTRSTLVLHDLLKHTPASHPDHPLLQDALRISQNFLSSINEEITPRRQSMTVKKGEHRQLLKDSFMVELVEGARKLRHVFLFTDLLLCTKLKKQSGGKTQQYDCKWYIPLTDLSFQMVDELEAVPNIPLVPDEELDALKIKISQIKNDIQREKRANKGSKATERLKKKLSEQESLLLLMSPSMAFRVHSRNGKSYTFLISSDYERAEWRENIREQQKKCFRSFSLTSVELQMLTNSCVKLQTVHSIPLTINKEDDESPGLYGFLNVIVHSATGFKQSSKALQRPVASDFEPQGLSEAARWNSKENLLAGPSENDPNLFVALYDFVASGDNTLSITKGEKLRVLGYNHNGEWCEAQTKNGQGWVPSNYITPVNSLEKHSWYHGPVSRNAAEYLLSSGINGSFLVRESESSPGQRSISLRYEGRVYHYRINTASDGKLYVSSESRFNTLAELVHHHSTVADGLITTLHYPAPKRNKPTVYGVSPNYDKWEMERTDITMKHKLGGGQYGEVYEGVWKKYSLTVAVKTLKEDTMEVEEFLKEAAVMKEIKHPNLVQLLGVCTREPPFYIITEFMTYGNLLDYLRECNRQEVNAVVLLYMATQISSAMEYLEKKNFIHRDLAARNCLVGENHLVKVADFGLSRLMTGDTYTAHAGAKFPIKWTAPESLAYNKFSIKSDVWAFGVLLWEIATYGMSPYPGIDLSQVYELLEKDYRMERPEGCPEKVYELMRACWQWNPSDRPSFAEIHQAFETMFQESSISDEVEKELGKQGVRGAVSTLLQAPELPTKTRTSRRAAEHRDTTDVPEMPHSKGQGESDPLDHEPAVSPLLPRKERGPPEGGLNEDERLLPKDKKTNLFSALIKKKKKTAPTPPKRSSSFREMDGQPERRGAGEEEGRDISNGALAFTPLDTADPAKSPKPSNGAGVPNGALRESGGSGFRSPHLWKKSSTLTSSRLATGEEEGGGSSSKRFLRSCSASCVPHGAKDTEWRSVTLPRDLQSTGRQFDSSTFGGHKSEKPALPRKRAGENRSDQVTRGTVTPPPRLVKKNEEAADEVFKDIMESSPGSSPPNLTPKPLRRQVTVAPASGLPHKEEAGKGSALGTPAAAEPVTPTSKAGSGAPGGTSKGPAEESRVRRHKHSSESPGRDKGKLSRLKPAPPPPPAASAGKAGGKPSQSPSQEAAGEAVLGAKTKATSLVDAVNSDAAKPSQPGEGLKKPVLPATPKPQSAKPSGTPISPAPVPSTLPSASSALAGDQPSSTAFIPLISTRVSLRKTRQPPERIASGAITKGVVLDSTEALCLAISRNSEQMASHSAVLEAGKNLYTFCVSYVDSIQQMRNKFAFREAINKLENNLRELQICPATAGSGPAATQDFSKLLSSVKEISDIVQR
T4 sequence (Q96SW2 whole entry, change not shown, further chain): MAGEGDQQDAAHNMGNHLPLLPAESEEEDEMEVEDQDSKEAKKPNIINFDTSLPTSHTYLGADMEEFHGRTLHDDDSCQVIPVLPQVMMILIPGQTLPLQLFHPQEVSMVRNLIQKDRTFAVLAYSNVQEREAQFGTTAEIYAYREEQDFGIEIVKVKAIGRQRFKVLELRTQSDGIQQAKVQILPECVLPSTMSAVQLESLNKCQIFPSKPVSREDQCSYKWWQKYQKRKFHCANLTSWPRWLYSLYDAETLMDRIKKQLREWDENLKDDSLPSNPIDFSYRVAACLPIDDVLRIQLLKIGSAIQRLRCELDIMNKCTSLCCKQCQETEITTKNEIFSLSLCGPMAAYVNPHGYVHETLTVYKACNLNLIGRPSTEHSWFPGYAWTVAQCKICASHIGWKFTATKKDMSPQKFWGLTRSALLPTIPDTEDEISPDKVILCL
T4 sequence (Q16531 whole entry partner): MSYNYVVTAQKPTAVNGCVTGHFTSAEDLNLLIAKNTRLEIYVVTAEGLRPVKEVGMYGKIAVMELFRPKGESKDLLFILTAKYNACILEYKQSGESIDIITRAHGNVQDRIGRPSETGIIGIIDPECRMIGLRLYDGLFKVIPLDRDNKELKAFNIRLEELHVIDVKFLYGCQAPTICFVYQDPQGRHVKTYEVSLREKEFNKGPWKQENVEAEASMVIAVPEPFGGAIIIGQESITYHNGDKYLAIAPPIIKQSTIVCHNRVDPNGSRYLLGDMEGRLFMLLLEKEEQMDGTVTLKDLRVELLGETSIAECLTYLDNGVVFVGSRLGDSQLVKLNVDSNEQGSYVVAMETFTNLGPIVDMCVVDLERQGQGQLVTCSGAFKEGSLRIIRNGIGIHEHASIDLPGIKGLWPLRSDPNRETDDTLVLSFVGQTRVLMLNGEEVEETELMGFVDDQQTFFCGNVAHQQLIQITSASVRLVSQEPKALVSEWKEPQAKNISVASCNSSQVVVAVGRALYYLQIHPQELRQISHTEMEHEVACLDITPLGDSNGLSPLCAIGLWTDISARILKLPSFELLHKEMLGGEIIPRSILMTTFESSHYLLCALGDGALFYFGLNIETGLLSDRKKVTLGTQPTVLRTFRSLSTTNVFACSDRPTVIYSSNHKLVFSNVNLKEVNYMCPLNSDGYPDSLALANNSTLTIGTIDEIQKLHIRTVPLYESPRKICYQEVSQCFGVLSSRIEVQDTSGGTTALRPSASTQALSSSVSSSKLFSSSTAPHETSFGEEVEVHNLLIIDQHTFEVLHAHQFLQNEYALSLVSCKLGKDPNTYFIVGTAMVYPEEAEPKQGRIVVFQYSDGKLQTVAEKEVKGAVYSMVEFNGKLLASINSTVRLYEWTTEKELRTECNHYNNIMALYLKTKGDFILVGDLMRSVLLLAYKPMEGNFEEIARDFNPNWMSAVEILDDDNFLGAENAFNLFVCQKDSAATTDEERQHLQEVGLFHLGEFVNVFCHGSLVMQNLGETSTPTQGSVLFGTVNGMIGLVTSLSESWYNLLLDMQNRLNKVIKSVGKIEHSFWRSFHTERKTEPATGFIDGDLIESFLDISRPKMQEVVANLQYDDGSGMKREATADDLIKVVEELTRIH
Experimental: as §1, §2

Molecule	concentration from which degradation of c-ABL is observed (c-ABL)	Kd [1]	Kd [2]	other results
Cc1nc(Nc2ncc(C(=O)Nc3c(C)cccc3Cl)s2)cc(N2CCN(CCCCCCOCCOCCOCCCCCC(=O)N[C@H](C(=O)N3C[C@H](O)C[C@H]3C(=O)NCc3ccc(-c4scnc4C)cc3)C(C)(C)C)CC2)n1 [DAS-6-2-2-6-VHL, N-(2-chloro-6-methylphenyl)-2-((6-(4-((S)-3-((2S,4R)-4-hydroxy-2-((4-(4-methylthiazol-5-yl)benzyl)carbamoyl)pyrrolidine-1-carbonyl)-2,2-dimethyl-5-oxo-11,14,17-trioxa-4-azatricosan-23-yl)piperazin-1-yl)-2-methylpyrimidin-4-yl)amino)thiazole-5-carboxamide]	≥ 1 µM	0.47 nM	0.92 nM	decrease (degradation) of c-ABL (c-ABL): > 65%
Cc1nc(Nc2ncc(C(=O)Nc3c(C)cccc3Cl)s2)cc(N2CCN(CCCCCCOCCOCC(=O)N[C@H](C(=O)N3C[C@H](O)C[C@H]3C(=O)NCc3ccc(-c4scnc4C)cc3)C(C)(C)C)CC2)n1 [DAS-6-2-2-VHL, N-(2-chloro-6-methylphenyl)-2-((6-(4-(6-(2-(2-(((S)-1-((2S,4R)-4-hydroxy-2-((4-(4-methylthiazol-5-yl)benzyl)carbamoyl)pyrrolidin-1-yl)-3,3-dimethyl-1-oxobutan-2-yl)amino)-2-oxoethoxy)ethoxy)hexyl)piperazin-1-yl)-2-methylpyrimidin-4-yl)amino)thiazole-5-carboxamide]	≥ 1 µM			
6-(2-(2-((6-(4-(3-((3-cyano-4-((2,4-dichloro-5-methoxyphenyl)amino)-6-methoxyquinolin-7-yl)oxy)propyl)piperazin-1-yl)hexyl)oxy)ethoxy)ethoxy)-N-(2-(2,6-dioxopiperidin-3-yl)-1,3-dioxoisoindolin-4-yl)hexanamide [BOS-6-2-2-6-CRBN]				c-ABL degradation (c-ABL; at 2.5 μM): > 90%; BCR-ABL degradation (BCR-ABL; at 2.5 μM): > 80%
Cc1nc(Nc2ncc(C(=O)Nc3c(C)cccc3Cl)s2)cc(N2CCN(CCCCCCOCCOCCOCCCCCC(=O)Nc3cccc4c3C(=O)N(C3CCC(=O)NC3=O)C4=O)CC2)n1 (stereo not drawn) [DAS-6-2-2-6-CRBN, N-(2-chloro-6-methylphenyl)-2-((6-(4-(6-(2-(2-((6-((2-(2,6-dioxopiperidin-3-yl)-1,3-dioxoisoindolin-4-yl)amino)-6-oxohexyl)oxy)ethoxy)ethoxy)hexyl)piperazin-1-yl)-2-methylpyrimidin-4-yl)amino)thiazole-5-carboxamide]			0.6 nM	decrease (degradation) of c-ABL (c-ABL): > 85%; BCR-ABL degradation (BCR-ABL; at 1 μM PROTAC): > 60%
Cc1nc(Nc2ncc(C(=O)Nc3c(C)cccc3Cl)s2)cc(N2CCN(CCCCCCOCCOCCOCCOCCOCCOCC(=O)N[C@H](C(=O)N3C[C@H](O)C[C@H]3C(=O)NCc3ccc(-c4scnc4C)cc3)C(C)(C)C)CC2)n1 [DAS-6-(2-)5-2-VHL, N-(2-chloro-6-methylphenyl)-2-((6-(4-((S)-3-((2S,4R)-4-hydroxy-2-((4-(4-methylthiazol-5-yl)benzyl)carbamoyl)pyrrolidine-1-carbonyl)-2,2-dimethyl-5-oxo-7,10,13,16,19,22-hexaoxa-4-azaoctacosan-28-yl)piperazin-1-yl)-2-methylpyrimidin-4-yl)amino)thiazole-5-carboxamide]	≥ 1 µM			
Cc1ccc(NC(=O)c2ccc(CN3CCN(CCCCCCOCCOCCOCCOCCOCCOCC(=O)Nc4cccc5c4C(=O)N(C4CCC(=O)NC4=O)C5=O)CC3)cc2)cc1Nc1nccc(-c2cccnc2)n1 (stereo not drawn) [IMA-6-(2-)5-2-CRBN, N-(2-(2,6-dioxopiperidin-3-yl)-1,3-dioxoisoindolin-4-yl)-24-(4-(4-((4-methyl-3-((4-(pyridin-3-yl)pyrimidin-2-yl)amino)phenyl)carbamoyl)benzyl)piperazin-1-yl)-3,6,9,12,15,18-hexaoxatetracosanamide]		84 nM	3 nM	
Cc1nc(Nc2ncc(C(=O)Nc3c(C)cccc3Cl)s2)cc(N2CCN(CCCCCCOCCCCCOCCCCCC(=O)N[C@H](C(=O)N3C[C@H](O)C[C@H]3C(=O)NCc3ccc(-c4scnc4C)cc3)C(C)(C)C)CC2)n1 [DAS-6-5-6-VHL, N-(2-chloro-6-methylphenyl)-2-((6-(4-(6-((5-((6-(((S)-1-((2S,4R)-4-hydroxy-2-((4-(4-methylthiazol-5-yl)benzyl)carbamoyl)pyrrolidin-1-yl)-3,3-dimethyl-1-oxobutan-2-yl)amino)-6-oxohexyl)oxy)pentyl)oxy)hexyl)piperazin-1-yl)-2-methylpyrimidin-4-yl)amino)thiazole-5-carboxamide]	≥ 1 µM	1.3 nM	2.6 nM	
Cc1ccc(NC(=O)c2ccc(CN3CCN(CCCCCCOCCCCCOCCCCCC(=O)Nc4cccc5c4C(=O)N(C4CCC(=O)NC4=O)C5=O)CC3)cc2)cc1Nc1nccc(-c2cccnc2)n1 (stereo not drawn) [IMA-6-5-6-CRBN, 4-((4-(6-((5-((6-((2-(2,6-dioxopiperidin-3-yl)-1,3-dioxoisoindolin-4-yl)amino)-6-oxohexyl)oxy)pentyl)oxy)hexyl)piperazin-1-yl)methyl)-N-(4-methyl-3-((4-(pyridin-3-yl)pyrimidin-2-yl)amino)phenyl)benzamide]		360 nM	24 nM	
